PMC4900596 (PLoS ONE, 2016)
Converted amounts (≈) assume the structure as drawn. Like-named read-outs stand apart in the source and are kept apart here.

What was measured:
[1] = system: human peripheral blood mononuclear cells (PBMCs); assay: Determination of the level of adenosine-5'-triphosphate (ATP), luciferase bioluminescence; format: cell-based; settings: for concentration from which a decrease in ATP level was observed / ATP level decreased by up to: 24 h; for concentration from which a decrease in ATP level was observed: significant vs control; for IC50: PBMC, human PBMCs, 24 h incubation, unit inferred, read-out: IC50 for changes in ATP level; for ATP level decreased by up to: 10 mM, control = 100%
Experimental: (§1) PBMCs were isolated from leucocyte-buffy coat collected from blood obtained in Blood Bank in Lodz, Poland. […] The testing was approved by the Bioethics Committee of the University of Lodz No. KBBN-UŁ/I/3/2013. PBMCs were diluted with PBS (1:4) and isolated using LSM (1.077 g/cm^3) by centrifugation at 600 g for 30 min at 20°C. PBMCs were collected, suspended in erythrocyte lysis buffer (150 mM NH4Cl, 10 mM NaHCO3, 1 mM EDTA, pH 7.4) and incubated for 5 min at 20°C. Then, PBS was added immediately, and the cells were centrifuged at 200 g for 15 min at 20°C. The supernatant was decanted, and the cells were washed twice with RPMI with L-glutamine and 10% fetal bovine serum (FBS) at 200 g for 15 min. The cells were resuspended in RPMI medium with L-glutamine, 10% FBS and penicylin-streptomycin (0.5%) and counted in haemocytometer. […] The viability of the cells was over 95%.
The level of ATP in the cells was determined by bioluminescence measurement at 560 nm using recombinant luciferase and its substrate, D-luciferin. The high sensitivity of method enables detection of 0.1 pM ATP. The reaction proceeds in two stages. In the first step, as a result of the reaction of ATP with luciferin, a complex of adenosine with luciferin is formed with simultaneous releasing of phosphate group. Secondly the complex reacts with oxygen resulting in a formation of oxyluciferin and adenosine monophosphate (AMP). Oxyluciferin returning from its excited state to the base state emits luminescence. The reaction requires the presence of magnesium ions.

[2] = system: human peripheral blood mononuclear cells (PBMCs); assay: Cell viability (necrotic changes), calcein-AM/propidium iodide staining, flow cytometry; format: cell-based; settings: for concentration from which a decrease in cell viability was noted: significant vs control (P < 0.05); for IC50: PBMC, human PBMCs, 24 h incubation, unit mM printed in b27 only
Experimental: as §1
The calcein-AM/propidum iodide (PI) viability test is commonly used in toxicity assays to detect cell membrane integrity and to quantify the number of viable and necrotic cells. The calcein-AM is hydrolyzed to calcein, which has a negative charge and penetrates living cells, staining them green. PI is one of the most widely used fluorescent markers for staining of necrotic cells. This compound penetrates the cells, in which membrane was damaged, and binds to DNA. This dye has two positive charges, which prevent it from entering intact cells. […] After the incubation, the samples were centrifuged at 300 g for 5 min at 4°C, the supernatant was decanted, and the cells were supplemented with RPMI with L-glutamine and 10% FBS. The samples were treated with calcein-AM and PI in the final concentrations of 0.1 and 1 μM, respectively and incubated for 15 min at 37°C in total darkness. The analysis was performed by flow cytometry (Becton Dickinson, LSR II). FCM gate on PBMCs has been established for data acquisition, and the fluorescence was measured with excitation/emission maxima of 494/517 nm and 535/617 nm for calcein and PI, respectively. The data were recorded for a total of 10,000 events per sample.

[3] = system: human peripheral blood mononuclear cells (PBMCs); assay: Measurement of cell morphology: size (FSC-A) and granularity (SSC-A) by flow cytometry; format: cell-based; settings: for concentration from which changes in PBMCs granularity (SSC-A) occurred / concentration causing statistically significant changes in FSC-A parameter: 24 h incubation; for activity at 10 µM / activity at 50 µM / activity at 100 µM / activity at 250 µM / activity at 500 µM / activity at 5000 µM: Homo sapiens, PBMC, 4 h; for activity at 10 µM: 0.01 mM; for activity at 50 µM: 0.05 mM; for activity at 100 µM: 0.1 mM; for activity at 250 µM: 0.25 mM; for activity at 500 µM: 0.5 mM; for activity at 5000 µM: 5.0 mM; for increase in FSC-A parameter / increase in SSC-A parameter: strongest change, concentration and time not given
Experimental: as §1
The cells were then analyzed using a flow cytometry (LSR II; Becton-Dickinson). FMC gate on PBMCs has been established for data acquisition, and cell size and granularity were evaluated with simultaneous separate detection of low-angle (FSC-A) and right-angle (SSC-A) light scattering. […] The light scattered near the forward direction (low angle) is expected to be proportional to particle size (volume), whereas scattering at the right angle depends on cell granularity (internal properties of the scattered particles).

[4] = system: PBMCs; settings: cited from earlier work
[5] = system: choriocarcinoma cell line; settings: MTT test; cited from earlier work
[6] = system: HUVEC cell line, human kidney cells 293, placenta JEG3 cells; settings: MTT; cited from earlier work
[7] = read-out: FSC-A (percent of control)
[8] = read-out: SSC-A (percent of control)

| SMILES | concentration from which a decrease in ATP level was observed [1] [mM] | IC50 [1] [mM] | concentration from which a decrease in cell viability was noted ([2]; 24 h) [mM] | IC50 [2] [mM] | concentration from which changes in PBMCs granularity (SSC-A) occurred [3] [mM] | activity at 10 µM [3, 7] [%] | activity at 10 µM [3, 8] [%] | activity at 50 µM [3, 7] [%] | activity at 50 µM [3, 8] [%] | activity at 100 µM [3, 7] [%] | activity at 100 µM [3, 8] [%] | activity at 250 µM [3, 7] [%] | activity at 250 µM [3, 8] [%] | activity at 500 µM [3, 7] [%] | activity at 500 µM [3, 8] [%] | activity at 5000 µM [3, 7] [%] | activity at 5000 µM [3, 8] [%] | ATP level decreased by up to [1] [%] | PBMCs viability decreased by up to ([2]; 10 mM, 24 h, control = 100%) [%] | concentration causing statistically significant changes in FSC-A parameter [3] [mM] | other results |
| --- | --- | --- | --- | --- | --- | --- | --- | --- | --- | --- | --- | --- | --- | --- | --- | --- | --- | --- | --- | --- | --- |
| NCP(=O)(O)O [AMPA, aminomethylphosphonic acid] | ≥ 5 | > 10 | ≥ 0.5 | > 10 | ≥ 5 | 101 ± 4.61 | 101 ± 3.75 | 101 ± 4.45 | 100 ± 3.47 | 101 ± 5.04 | 101 ± 2.26 | 101 ± 3.96 | 101 ± 5.74 | 102 ± 3.93 | 101 ± 5.35 | 99.6 ± 5.18 | 102 ± 4.76 | – | – | – | – |
| O=P(O)(O)CNCP(=O)(O)O [Bis-(phosphonomethyl)amine, bis-(phosphonomethyl)amine] | ≥ 0.5 | 5.3 | ≥ 7.5 | 8.7 | ≥ 7.5 | 101 ± 2.38 | 98.4 ± 2.94 | 99.7 ± 2.54 | 100 ± 2.55 | 99.6 ± 2.04 | 100 ± 3.68 | 100 ± 2.68 | 100 ± 2 | 101 ± 3.34 | 101 ± 1.12 | 100 ± 3.88 | 103 ± 3.17 | 3.4 | 37.2 | ≥ 7.5 | increase in FSC-A parameter [3]: 9%; increase in SSC-A parameter [3]: 92% |
| O=C(O)CNCP(=O)(O)O [Glyphosate, N-phosphonomethylglycine, reference compound] | ≥ 5 | 9.6 | – | > 10 | ≥ 0.5 | 102 ± 3.55 | 99.2 ± 4.71 | 102 ± 2.94 | 99.7 ± 7.75 | 102 ± 2.38 | 101 ± 9.59 | 102 ± 4.69 | 101 ± 8.1 | 102 ± 3.89 | 102 ± 5.94 | 101 ± 3 | 104 ± 7.27 | – | – | – | IC50 (cytotoxic effects) [4]: 56.4 mg/L (≈ 334 µM); decrease in cell viability ([2]; 10 mM, 24 h, control = 100%): 2.7%; EC50 [5]: 16 mM; concentration significantly affecting cell viability [6]: 100 µM |
| O=P(O)(O)CO [Hydroxy-methylphosphonic acid, hydroxymethylphosphonic acid] | ≥ 5 | > 10 | ≥ 7.5 | > 10 | ≥ 5 | 100 ± 2 | 96.8 ± 4.77 | 100 ± 1.84 | 97.6 ± 4.71 | 100 ± 1.91 | 99.4 ± 1.17 | 101 ± 3.68 | 100 ± 3.33 | 100 ± 2.4 | 101 ± 2.05 | 100 ± 2.94 | 102 ± 2.14 | – | – | – | – |
| CN(CC(=O)O)CP(=O)(O)O [N-methylglyphosate] | ≥ 0.5 | > 10 | ≥ 7.5 | > 10 | ≥ 5 | 102 ± 3.97 | 101 ± 4.68 | 102 ± 2.66 | 101 ± 4.81 | 103 ± 3.27 | 102 ± 3.57 | 101 ± 5.72 | 102 ± 4.73 | 101 ± 4.66 | 102 ± 8.82 | 100 ± 4.82 | 102 ± 7.27 | – | – | – | – |
| O=C(O)CN(CC(=O)O)CP(=O)(O)O [PMIDA, N-(phosphonomethyl)iminodiacetic acid] | ≥ 5 | 6.1 | ≥ 5 | 7.9 | 10 | 100 ± 2.09 | 97.5 ± 4.97 | 100 ± 2.21 | 98.1 ± 5.81 | 100 ± 3.36 | 99.2 ± 5.42 | 100 ± 2.65 | 99.3 ± 4.63 | 100 ± 2.65 | 99.8 ± 6.3 | 101 ± 4.59 | 105 ± 5.12 | 2.1 | 3.4 | 10 | increase in FSC-A parameter [3]: 13%; increase in SSC-A parameter [3]: 150% |
